The source of these data is patent US20080167347A1, “Ctgf Expression Inhibitor” (SHIONGI & CO., LTD., priority 2005, published 2008).

For this experiment, the system named is human CTGF promoter region containing TGF-β responsive element. The experiment in a line: Luciferase assay of CTGF promoter activity in Ms0-2-3 cells stimulated with TGF-β. It counts as cell-based. Particulars: Mesangial cell; Ms0-2-3 rat mesangial cells, TGF-β 2 ng/ml stimulation, luciferase activity after 24 hours; read-out: IC50 (inhibitory rate against CTGF promoter activity). On the procedure:
Several kidneys of 6 to 8-week-old male Wistar rats were perfused with sterilized phosphate buffered saline (PBS) and excised. Glomeruli were isolated from the cortex by a sieving method (with 180, 125 or 63 μm mesh). Isolated glomeruli were cultured in RPMI1640 medium containing 20% bovine serum, 1% penicillin-streptomycin and 1% Hepes buffer at 37° C. under 5% carbon dioxide (CO2) atmosphere. After 3 weeks, the medium was changed to the new one. After 4 weeks, mesangial cells which proliferated and became confluent were diluted 2 to 5 times and subcultured. Subcultures were repeated over 20 times, and mesangial cells cultured in usual RPMI1640 medium containing 10% bovine serum, 1% penicillin-streptomycin and 1% Hepes buffer were cloned by a limiting dilution method to establish cell line Ms0-2. […]
Luciferase assay was performed with Ms0-2-3 cells which were cultured with serum-free medium for 48 hours. […] Substrate was added thereto and luciferase activity of each well was measured by luminometer. Enhancement of luciferase activity by TGF-β stimulation (without a compound) was determined as 100% and the inhibitory rate of activity by addition of the compound was calculated. The value obtained from the inhibitory curve was judged as the inhibitory rate against CTGF promoter activity and determined as IC50 value. […]

In the case of `O=C(Nc1cccc(C(F)(F)F)c1)c1cc(-c2ccc(OC(F)(F)F)cc2)ccc1O` [Compound 43], the IC50 (usually the concentration that inhibits the measured activity by half) stood at 102 nM.
